The values that follow come from patent US5314886A, “N-substituted lactams useful as cholecystokinin antagonists” (priority 1992, dated 1994).

The target of experiment [1] is T1, CCK-B (Cavia porcellus, UniProt H0VZC5).
T1 construct: Rat pancreas or guinea pig brain was homogenized; from tissue; host or cells: guinea pig brain homogenate (membrane pellet)
T1 sequence (H0VZC5 1-426): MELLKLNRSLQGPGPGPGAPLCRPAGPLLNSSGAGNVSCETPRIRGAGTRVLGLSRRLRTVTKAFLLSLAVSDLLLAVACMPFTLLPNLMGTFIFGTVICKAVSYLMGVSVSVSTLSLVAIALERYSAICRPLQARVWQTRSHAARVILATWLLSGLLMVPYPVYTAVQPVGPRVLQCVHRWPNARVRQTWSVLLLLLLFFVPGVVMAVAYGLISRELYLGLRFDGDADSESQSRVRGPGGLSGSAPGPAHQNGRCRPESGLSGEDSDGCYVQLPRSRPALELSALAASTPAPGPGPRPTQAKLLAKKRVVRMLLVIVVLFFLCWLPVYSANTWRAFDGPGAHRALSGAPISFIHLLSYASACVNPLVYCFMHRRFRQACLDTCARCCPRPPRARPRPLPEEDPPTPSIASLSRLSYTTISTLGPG
The experiment in a line: Displacement of 125I-CCK-OP binding to guinea pig brain homogenates (CCK-B binding). The following applies: guinea pig brain membranes; for inhibition at 10 µM: read-out: CCK-B binding GP brain membranes: percent displacement of 125I-CCK-OP; for IC50: 125I-CCK-OP, read-out: CCK-B binding GP brain membranes: IC50. The method, then:
Percent displacement of ^125 I-CCK-OP binding to rat pancreatic membrane and guinea pig brain homogenates by compounds of the instant invention at different concentrations was used to quantify CCK-A and CCK-B receptor binding, respectively.
Binding of 125-CCK-OP to rat pancreas (CCK-A) and guinea pig brain (CCK-B) homogenates.
Rat pancreas or guinea pig brain was homogenized in 50 and 20 volumes, respectively, of 50 mM Tris-HCl buffer (pH 7.8 at 25° C.) with a Brinkmann polytron homogenizer. The homogenates were centrifuged twice at 50,000 x g for 20 min with an intermediate rehomogenization in fresh buffer. The final pellets were resuspended in 20 volumes (brain) or 40 volumes (pancreas) of incubation buffer [50 mM Tris-HCl, 5 mM MgCl2, 0.2% BSA, 5 mM dithiothreitol, 0.14 mg/ml bacitracin, pH 7.9 at 25° C.]. One milliliter of the final homogenate from brain or pancreas was diluted to 50 mL with incubation buffer to use in the binding assay.
Binding experiments were performed in a final volume of 1 mL in 13×100 mm borosilicate disposable culture tubes. To duplicate tubes were added 890 μL of freshly resuspended pancreas or brain homogenate; 73,000 dpm of […] (final concentration, 12 pM) and 10 μL of DMSO containing displacing agents (compounds or reference compounds, at the desired final concentrations). Nonspecific (nonsaturable) binding was determined in the presence of 1 μM unlabeled CCK-OP. After incubation for 30 min at 37° C. the binding was stopped by rapid filtration under a reduced pressure through glass fiber FPD-105 Whatman GF/B filters on Harvester and washed twice with 5 mL of ice-cold Tris buffer (50 mM Tris-HCl, pH 7.8). The radioactivity on the filters was counted in a gama counter. […] Specific binding was defined as the excess binding over that in blanks containing 1 μM unlabeled CCK-OP.
Determination of IC50 for displacing agents
(In a radioligand displacement assay an active substance lowers the binding of a labelled ligand.)

For experiment [2], the target named is T2, CCK-A (Rattus norvegicus, UniProt P30551).
T2 sequence (P30551 1-444): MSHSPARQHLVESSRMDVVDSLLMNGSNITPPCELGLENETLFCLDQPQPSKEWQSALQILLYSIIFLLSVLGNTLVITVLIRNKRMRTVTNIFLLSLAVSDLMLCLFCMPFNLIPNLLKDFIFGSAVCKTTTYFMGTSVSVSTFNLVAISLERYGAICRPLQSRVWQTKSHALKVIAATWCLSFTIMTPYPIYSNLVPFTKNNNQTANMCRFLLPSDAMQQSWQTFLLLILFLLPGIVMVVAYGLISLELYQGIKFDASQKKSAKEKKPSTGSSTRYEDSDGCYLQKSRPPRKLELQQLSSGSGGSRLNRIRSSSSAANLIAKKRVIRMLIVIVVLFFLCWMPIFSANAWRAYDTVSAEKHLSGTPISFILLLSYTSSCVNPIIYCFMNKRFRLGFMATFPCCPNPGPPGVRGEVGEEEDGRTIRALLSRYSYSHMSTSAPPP
The experiment in a line: Displacement of 125I-CCK-OP binding to rat pancreatic membranes (CCK-A binding). Particulars: for inhibition at 1 µM: read-out: CCK-A binding rat pancreatic membranes: percent displacement of 125I-CCK-OP; for IC50: 125I-CCK-OP.

Structures can show the parent of a compound that is named as a salt.

`CC(C)(C)OC(=O)[C@@H]1CN(c2ccccc2)C(=O)[C@@H]1NC(=O)c1ccc2ccccc2c1` (relative stereo) [1,1-Dimethylethyl cis-4-[(2-naphthalenylcarbonyl)amino]-5-oxo-1-phenyl-3-pyrrolidinecarboxylate]: the inhibition at 10 µM in experiment [1] came out at 35%. For the same molecule, the inhibition at 1 µM in experiment [2] was 32%.

One may read the IC50 as the concentration that gives 50% inhibition. As to `CCCCCN1C[C@H](C(=O)O)[C@H](NC(=O)Nc2ccc(Cl)cc2)C1=O` (relative stereo) [47 cis], the IC50 in experiment [2] was more than 1000 nM.

`CCCCCN1C[C@@H](C(=O)O)[C@H](NC(=O)Nc2ccc(Cl)cc2)C1=O` (relative stereo) [47 trans] showed an IC50 in experiment [2] of more than 1000 nM.

With `CCCCCN1C[C@@H](C(=O)O)[C@@H](NC(=O)c2cnc3ccccc3c2)C1=O` (relative stereo) [Example 27, cis-5-oxo-1-pentyl-4-[(3-quinolinylcarbonyl)amino]-3-pyrrolidinecarboxylic acid, monohydrochloride], the IC50 in experiment [1] was more than 10 µM; in experiment [2], 250 nM.

With `O=C(N[C@@H]1C(=O)N(c2ccccc2F)C[C@@H]1C(=O)O)c1cnc2ccccc2c1` (relative stereo) [Example 28, cis-1-(2-fluorophenyl)-5-oxo-4-[(3-quinolinylcarbonyl)amino]5-oxo-3-pyrrolidinecarboxylic acid], the IC50 in experiment [1] is more than 10 µM.

Regarding `O=C(N[C@@H]1C(=O)N(c2ccccc2)C[C@H]1C(=O)O)c1cc2ccccc2[nH]1` (relative stereo) [Example 30, trans-4-[(1H-Indol-2-ylcarbonyl)amino]-5-oxo-1-phenyl-3-pyrrolidinecarboxylic acid], the IC50 in experiment [2] stood at 320 nM.

Turning to `CCCCCN1C[C@@H](C(=O)O)[C@@H](NC(=O)c2ccc(Cl)c(Cl)c2)C1=O` (relative stereo) [Example 32, cis-4-[[(3,4-Dichlorophenyl)carbonyl]amino]-5-oxo-1-pentyl-3-pyrrolidinecarboxylic acid], the inhibition at 10 µM in experiment [1] was found to be 49%. The IC50 in experiment [2] was 300 nM.

For `CCCCCN1C[C@@H](C(=O)O)[C@@H](NC(=O)Nc2ccc(Cl)c(Cl)c2)C1=O` (relative stereo) [Example 34, cis-4-[[[(3,4-dichlorophenyl)amino]carbonyl]amino]-5-oxo-1-pentyl-3-pyrrolidinecarboxylic acid], the IC50 in experiment [1] is 6 µM; in experiment [2] it was 350 nM.

Turning to `O=C(N[C@@H]1C(=O)N(c2ccccc2)C[C@H]1C(=O)O)c1ccc(Cl)c(Cl)c1` (relative stereo) [Example 35 (trans), trans-4-[[(3,4-dichlorophenyl)carbonyl]amino]-5-oxo-1-phenyl-3-pyrrolidinecarboxylic acid], the IC50 was more than 10 µM in experiment [1] and more than 1000 nM in experiment [2].

For `O=C(Nc1ccc(Cl)c(Cl)c1)N[C@H]1C(=O)N(c2ccccc2)C[C@H]1C(=O)O` (relative stereo) [Example 36 (cis), cis-4-[[[(3,4-dichlorophenyl)amino]carbonyl]amino]-5-oxo-1-phenyl-3-pyrrolidinecarboxylic acid], the figures for the IC50 in experiment [1] and in experiment [2] were 10 µM and 100 nM, respectively.

`O=C(Nc1ccc(Cl)c(Cl)c1)N[C@@H]1C(=O)N(c2ccccc2)C[C@H]1C(=O)O` (relative stereo) [Example 36 (trans)]: in experiment [1], the inhibition at 10 µM amounted to 45%. The molecule further gave an IC50 in experiment [2] of more than 1000 nM.

In turn, `CCCCCN1C[C@@H](C(=O)O)[C@H](NC(=O)c2ccc3ccccc3c2)C1=O` (relative stereo) [Example 39, trans-4-[(2-Naphthalenylcarbonyl)amino]-5-oxo-1-pentyl-3-pyrrolidinecarboxylic acid] came in with an IC50 in experiment [2] of more than 10000 nM.

For `CCCCCN1C[C@@H](C(=O)O)[C@@H](NC(=O)Nc2ccc3ccccc3c2)C1=O` (relative stereo) [Example 40, cis-4-[[(2-Naphthalenylamino)carbonyl]amino]-5-oxo-1-pentyl-3-pyrrolidinecarboxylic acid], the IC50 in experiment [1] was 10 µM; in experiment [2], 2800 nM.

On to `CCCCCN1C[C@@H](C(=O)O)[C@@H](NC(=O)c2ccc(Cl)cc2)C1=O` (relative stereo) [Example 45], for which the IC50 in experiment [1] was more than 10 µM; in experiment [2], more than 1000 nM.

Turning to `O=C(N[C@H]1C(=O)N(c2ccccc2)C[C@H]1C(=O)O)c1ccc(Cl)cc1` (relative stereo) [Example 46 (cis), cis-4-[[(4-Chlorophenyl)carbonyl]amino]-5-oxo-1-phenyl-3-pyrrolidinecarboxylic acid], the IC50 in experiment [1] is more than 10 µM; in experiment [2], 1600 nM.

On to `O=C(N[C@@H]1C(=O)N(c2ccccc2)C[C@H]1C(=O)O)c1ccc(Cl)cc1` (relative stereo) [Example 46 (trans), trans-4-[[(4-Chlorophenyl)carbonyl]amino]-5-oxo-1-phenyl-3-pyrrolidinecarboxylic acid], for which the IC50 in experiment [1] was more than 10 µM; in experiment [2] it was 41000 nM.

On to `O=C(Cc1c[nH]c2ccccc12)N[C@@H]1C(=O)N(c2ccccc2)C[C@H]1C(=O)O` (relative stereo) [Example 51, trans-4-[(3-indolylacetyl)amino]-5-oxo-1-phenyl-3-pyrrolidinecarboxylic acid], for which the IC50 in experiment [1] was more than 10 µM; in experiment [2], more than 1000 nM.

For the molecule `O=C(N[C@@H]1C(=O)N(c2ccccc2)C[C@@H]1C(=O)N1CCCC1)c1ccc2ccccc2c1` (relative stereo) [Example 53, cis-1-[[3-[(2-Naphthalenylcarbonyl)amino]-2-oxo-1-phenyl-4-pyrrolidinyl]carbonyl]pyrrolidine], the inhibition at 10 µM in experiment [1] came out at 45%. In experiment [2], this molecule yielded an IC50 of 750 nM.

`O=C(N[C@@H]1C(=O)N(c2ccccc2)C[C@H]1C(=O)N1CCCC1)c1ccc2ccccc2c1` (relative stereo) [Example 55, trans-1-[[3-[(2-Naphthalenylcarbonyl)amino]-2-oxo-1-phenyl-4-pyrrolidinyl]carbonyl]pyrrolidine]: in experiment [1], the IC50 stood at 10 µM. Besides, the inhibition at 1 µM in experiment [2] turned out to be 27%.
